Data: patent US20240269112A1 (priority 2020, published 2024)

How the values were obtained:
[1] = tested on: septic patients who have undergone abdominal surgery; conditions: human, in vivo
From the text: The following parameters related to kidney function have been determined: • Creatinine is a waste molecule generated from muscle metabolism. Creatinine originates from creatine, a very important molecule for energy production in the muscle. About 2% of creatine in the body is converted into creatinine every day. Creatinine is transported from muscles to the kidney by blood. The kidneys filter most of the creatinine and eliminate it in the urine. Determination of serum creatinine is a test which provides a fairly reliable indication of the state of kidney function. • Urea, the determination of which is the most widely used test to assess kidney function. Urea is the end product of protein and amino acid metabolism. In protein degradation, proteins are split into amino acids and deaminated. Urea is synthesized in the liver with the ammonia that is formed. This is the most important pathway for degrading excess nitrogen in the human body.

[2] = tested on: septic patients who have undergone abdominal surgery; conditions: human, in vivo; remark: listed apart in the source
From the text: The enzyme lactate dehydrogenase (or also called “lactic acid dehydrogenase” (LDH)), an enzyme which is found in almost all the tissues in the human body, has been determined to detect injuries in tissues such as the liver. It plays an important role in cellular respiration (the process in which glucose from foods is converted into energy which can be used by cells).
Although LDH is abundant in tissue cells, the levels in blood are generally low. However, when tissues are damaged as a result of an injury or a disease, they release more LDH into the blood stream. This increase in the amount of LDH in the blood stream is often caused by the following conditions: liver diseases, heart attacks, anemia, muscle trauma, bone fracture, cancer, infections such as meningitis, encephalitis, or HIV.

[3] = tested on: Covid-19 patients admitted to the ICU; assay: Efficacy and safety of IV melatonin in Covid-19 patients admitted to the ICU: hospital/ICU stay, mechanical ventilation, adverse reactions; assay type: in vivo, human
Method: (§1) To conduct this study, all patients received standard treatment according to institutional protocols. Furthermore, patients were assigned randomly in a 2:1 ratio to receive: • Experimental group (12 patients): 7 days of 5 mg/kg body weight/day of intravenous melatonin every 6 hours. Daily maximum dose of 500 mg a day. • Control group (6 patients): 7 days of 5 mg/kg body weight/day of placebo with identical appearance through the intravenous route every 6 hours.
(§2) After 3 days of treatment, 3 intensive care physicians evaluated each participant and decided whether or not they wished to complete the treatment based on their clinical assessment: • If there were objective or subjective signs of improvement or non-worsening of general clinical condition or respiratory failure, with no observation of inflammatory condition or multiorgan failure, the participant continued treatment until completion. • If an adverse effect or clinical deterioration which can be objectively or subjectively attributed to the study drug was observed, treatment was discontinued.
(§3) The injectable composition was prepared according to the criteria established in Example 1 by adjusting the amounts to 5 mg/kg body weight/day of intravenous melatonin every 6 hours.
(§4) • To evaluate whether iv treatment with melatonin reduced the duration of ICU (intensive care unit) admission. • To evaluate whether iv treatment with melatonin reduced the duration of mechanical ventilation (MV). • To evaluate whether iv treatment with melatonin was associated with an increase in MV-free days. • To evaluate whether iv treatment with melatonin is associated with a reduction in systemic inflammatory response, defined by the levels of ferritin, D-dimer, C-reactive protein (CRP) or procalcitonin (PCT) and IL-6. 1. Evaluating Whether iv Treatment with Melatonin Reduced the Duration of ICU (Intensive Care Unit) Admission (See FIG. 7)

[4] = tested on: Covid-19 patients admitted to the ICU; assay: IV melatonin in Covid-19 ICU patients: systemic inflammatory response (ferritin, D-dimer, CRP, IL-6, lymphocytes); assay type: in vivo, human
Method: as §1, §2, §3, §4

[5] = tested on: septic patients who have undergone abdominal surgery; conditions: human, in vivo; remark: listed apart in the source
[6] = tested on: septic patients who have undergone abdominal surgery; assay: Clinical study with septic patients: blood parameters (leukocytes, red blood cells, hemoglobin, hematocrit, neutrophils, lymphocytes, platelets); conditions: regardless of time, p=0.007
Method: The following blood parameters from these samples were analyzed for each of the participating patients: the number of leukocytes, the number of red blood cells, hemoglobin, hematocrit, percentage of neutrophils, percentage of lymphocytes, and the number of platelets.

[7] = 5 mg/kg/day iv every 6 hours, 7 days

## COc1ccc2[nH]cc(CCNC(C)=O)c2c1 [melatonin, N-acetyl-5-methoxytryptamine]
[1]
  Levels of creatinine compared between groups A and B in each time point: no statistically significant differences
  Levels of urea compared between the two groups in each time point: higher in group B (placebo)
[2]
  Levels of LDH compared between the two groups in each time point: higher in group A (melatonin)
[3]; 5 mg/kg/day for 7 days
  Adverse reactions: did not cause any adverse reactions
  Increase in the number of days without mechanical ventilation compared to placebo: 16 days
  Reduction in invasive mechanical ventilation compared to placebo: 9 days
[3]; [7]
  Days without mechanical ventilation during hospitalization (MV-free days): 40 days
  Duration of ICU admission compared to placebo: no significant difference
  Duration of invasive mechanical ventilation: 21 days
  Duration of non-invasive mechanical ventilation: 16.5 days
  Reduction in hospital stay compared to placebo: 15 days
[4]; 5 mg/kg/day for 7 days
  Inflammatory response: improvement in the inflammatory response
[4]; during the days of treatment, FIG. 2
  Levels of dimer-D (D-dimer): reduction
[4]; during the days of treatment, FIG. 3
  Levels of ferritin: reduction
[4]; during the days of treatment, FIG. 4
  Levels of CRP: reduction
[4]; during the days of treatment, FIG. 5
  IL6: reduction
[4]; during treatment
  Bilirubin: has to drop
  Neutrophils: tendency of neutrophils decreasing
[4]; during treatment, FIG. 6
  Lymphocytes with respect to placebo: increase
[5]
  ALP (alkaline phosphatase): average values between groups: not statistically significant
  GGT: average values between groups: not statistically significant
  GOT: differences in average values between groups: not statistically significant
  GPT: average values between groups: not statistically significant
[6]
  Neutrophil average, group A compared with group B (placebo): higher in group B (placebo) than in group A (melatonin)
